# From US20240300987A1, “TRAP1 INHIBITOR AND USE THEREOF” (SMARTIN BIO INC., priority 2021, published 2024)
# Entries after “also recorded” stand apart in the source; their conditions may differ.
# Key:
# OIR mice = experiment: Oxygen-induced retinopathy (OIR) model, CD31 whole-mount staining of retina; format: in vivo; settings: intravitreal injection at P12 or eye drop administration P12 to P17
# Excerpt: As TRAP1+/+(wild-type), TRAP1+/−(hetero), and TRAP1−/− (knockout) experimental mice, Black6 J strain mice were used. On the 7th day after birth, a baby mouse and a mother mouse were placed in an in vivo chamber (Coy-lab) and supplied with high oxygen (75% O2). On the 12th day after birth, the baby mouse was taken out of the in vivo chamber. Then, a surrogate mother was put thereinto, and normal oxygen (21% O2) was supplied. Then, the eyeball of the baby mouse was removed on the 17th day after birth and used for experiments.
# In the process of forming the in vivo oxygen-induced retinopathy (OIR) model, the baby mouse was treated with eye drops for 6 days, from the day when being taken out to normal oxygen after being supplied with high oxygen until the day their eyes were collected (on the 12th day to 17th day after birth). Treatment was performed three times a day at intervals of 4 hours. As a drug treatment method, Mito Q was diluted to a concentration of 1 mM in Liposic and dropped 10 uL into the eyes of the baby mouse. Then, the eyes were allowed to blink for 1 minute. After wiping the residual amount outside the eyeball with a cotton swab, the mouse was returned to the care of the mother mouse. […]
# [1] = target: T1, human full-length TRAP1 protein (Homo sapiens, UniProt Q12931); experiment: Fluorescence polarization (FP) analysis using SB-TM2 probe (client-binding site); settings: for IC50: FP analysis using SB-TM2; for Activity compared to that of SMX: TRAP1 binding, relative to SMX of the same table; for binding capacity compared to that of SMX (MitoQ): result in words
# T1 construct: containing human full-length TRAP1 protein (400 nM); hexahistidine tag followed by TEV protease cleavage site (N, cleaved yes); made in house; host or cells: E. coli BL21 (DE3)
# T1 sequence (Q12931 60-704): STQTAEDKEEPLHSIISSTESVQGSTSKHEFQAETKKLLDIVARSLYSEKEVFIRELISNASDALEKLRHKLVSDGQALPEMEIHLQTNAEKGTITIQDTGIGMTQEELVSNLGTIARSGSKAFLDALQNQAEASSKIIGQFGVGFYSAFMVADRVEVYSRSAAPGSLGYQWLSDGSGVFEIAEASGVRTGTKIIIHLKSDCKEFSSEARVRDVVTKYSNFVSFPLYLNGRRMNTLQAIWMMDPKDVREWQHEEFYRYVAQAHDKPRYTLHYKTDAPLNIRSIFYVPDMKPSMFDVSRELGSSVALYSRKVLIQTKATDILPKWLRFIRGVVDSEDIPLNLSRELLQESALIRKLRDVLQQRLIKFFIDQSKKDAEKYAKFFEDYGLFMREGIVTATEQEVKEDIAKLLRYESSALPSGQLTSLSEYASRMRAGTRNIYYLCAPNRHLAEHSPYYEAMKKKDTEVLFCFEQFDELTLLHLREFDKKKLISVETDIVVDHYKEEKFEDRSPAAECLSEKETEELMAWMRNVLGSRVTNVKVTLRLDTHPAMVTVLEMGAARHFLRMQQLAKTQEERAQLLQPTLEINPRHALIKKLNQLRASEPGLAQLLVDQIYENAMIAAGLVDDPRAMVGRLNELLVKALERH
# Procedure: The substance to be analyzed (at a final volume of 100 μL) was added to FP buffer ([…], 2.7 mM KCl, 4.3 mM Na2HPO4, 1.4 mM KH2PO4 (pH 7.3), 1 mM DTT, 2 mM MgCl2, and 0.1 mg/mL BSA) containing human full-length TRAP1 protein (400 nM) and SB-TM2 probe (100 nM) and then reacted at room temperature for 1 hour (96-well plate). Using a SYNERGY NEO microplate reader, FP was measured at an excitation wavelength set to 440 nm and an emission wavelength set to 500 nm.
# TRAP1 [2] = target: T2, TRAP1 (Homo sapiens, UniProt Q12931); experiment: ATPase activity assay (PiColorLock Gold Phosphate Detection Kit); format: biochemical; set-up: hexahistidine tag followed by TEV protease cleavage site (N, cleaved yes); made in house; host or cells: E. coli BL21 (DE3); settings: result in words
# T2 sequence (Q12931 60-704): T1 sequence (Q12931 60-704)
# Procedure: The ATPase activity of TRAP1 was measured using the PiColorLock Gold Phosphate Detection Kit (Abcam). Then, 0.5 µM TRAP1 (wild-type or mutation) was pre-incubated along with inhibitors at various concentrations for 30 minutes and then incubated with 0.2 mM ATP at 37° C. for 3 hours in ATPase activity assay buffer containing 50 mM Tris-HCl, 20 mM KCl, and 6 mM MgCl (pH 7.4). Next, 20 µL of a mixture of a PiColorLock Gold reagent and an accelerator (100:1) was added to each sample (100 μL). After 5 minutes of incubation, 10 μL of a stabilizer was added to stop color development. Absorbance was measured at 620 nm using a microplate reader (Synergy NEO, BioTek). The background signal was normalized by subtracting the absorbance of unreacted samples.
# HIF1α = experiment: Drug activity assay using MIO-M1 HRE/GFP cell line under hypoxia; format: cell-based; settings: for IC50: MIO-M1, 24 h, HIF1α inhibitory activity in MIO-M1 cells, 1% O2 24 hours; for Activity compared to that of SMX: HIF1α inhibition, relative to SMX of the same table
# Procedure: After transfection (jetPRIME kit) of MIO-M1 Müller cells with 5HRE/GFP plasmid (Addgene, #46926), the cells transfected with the plasmid were selected using 1 mg/ml of G418 (Neomycin), a selectable marker. A stable cell line was constructed by selecting cells, growing in a colony form, from single cells. The prepared MIO-M1-HRE/GFP stable cell line was dispensed into a 96-well plate and treated with drugs at different concentrations the next day. After being exposed to a hypoxic environment (1% O2) for 24 hours, the GFP (Ex/Em: 488/507) fluorescence signal was measured using a SYNERGY NEO microplate reader (BioTek Instrument). The relative fluorescence value was calculated on the basis of 100% of the negative control group.
# 22Rv1 cells = experiment: In vivo mouse xenograft; set-up: species or system mice; settings: 3 mg/Kg intraperitoneally daily
# Procedure: Immunodeficient athymic nude mice (male, 8 weeks old) were purchased from OrientBio. The mice were maintained in a pathogen-free facility (12-hour dark/light cycle) at the UNIST In Vivo Research Center and supplied with standard diet and water. All animal experiments were approved by UNIST ([…]-19-11). 22Rv1 cells (1×10^7) were injected subcutaneously into both sides of the nude mice. When the tumor size reached approximately 100 mm^3, 3 mg/Kg drugs (MitoQ, SB-U014, and SB-U015) and vehicle (DMSO) dissolved in 20% cremophor EL (Sigma) in PBS were administered intraperitoneally daily. The tumor volume was measured daily using an electronic caliper and calculated using the following equation: V=½× (width) 2× length. When the experiment was completed, animals were euthanized, and the tumor was collected for histology and western blot. Band intensities were quantified using ImageJ software (National Institute of Health, USA). In this case, western blot was performed in the same manner as described above.
# TRAP1 [3] = target: T2, TRAP1; experiment: Protein expression analysis by western blot in 22Rv1 cells, TRAP1 inhibition markers; format: cell-based; set-up: endogenous in cells; host or cells: 22Rv1; settings: 5 µM of each compound, 2 hours
# Procedure: Human cancer cell line 22Rv1 was purchased from the American Type Culture Collection (ATCC) and maintained as recommended by the supplier. Briefly, cancer cells were incubated in a DMEM or RPMI medium (GIBCO) containing 10% fetal bovine serum (FBS; ATCC) and 1% penicillin/streptomycin (GIBCO) at 37° C. in a humidified atmosphere of 5% CO2. The cells were not incubated for more than 6 months.
# The 22Rv1 cells were treated with 5 µM of each compound, cultured for 2 hours, and then analyzed by western blot.
# Cell lysates were separated by SDS-PAGE and transferred to a PVDF membrane. The membrane was blocked with 10% skim milk in TBST (TBS containing 0.05% Tween-20) for 1 hour at room temperature and incubated with primary antibodies overnight at 4° C. The membrane was washed with TBST three times for 1 hour and incubated with secondary antibodies (1:5000) diluted in 10% skim milk in TBST for 1 hour. The membrane was washed with TBST three times and visualized using an enhanced chemiluminescence detection kit (BioRad).
# [4] = 22Rv1 xenograft in nude mice, compared to DMSO
compound,measurement,setting,value
"COC1=C(OC)C(=O)C(C[P+](c2ccccc2)(c2ccccc2)c2ccccc2)=C(C)C1=O [MitoQ^S, ((4,5-Dimethoxy-2-methyl-3,6-dioxocyclohexa-1,4-dien-1-yl)methyl)triphenylphosphonium]",avascular and neovascular areas in the retina of the OIR model,OIR mice,both avascular and neovascular areas are significantly reduced; also recorded: significantly reduces both avascular and neovascular areas
"COc1cc(C)c(CCCCCCCCCC[P+](c2ccccc2)(c2ccccc2)c2ccccc2)cc1OC [SB-U015, (10-(4,5-Dimethoxy-2-methylphenyl)decyl)triphenylphosphonium]",IC50,"[1]; Table 4, other synthetic compounds",1.83 ± 0.285 µM
same,Activity compared to that of SMX,[1]; Table 4,0.22
same,TRAP1 ATPase activity with increasing concentration,TRAP1 [2],did not show a tendency that the ATPase activity decreased in a concentration-dependent manner
same,IC50,"HIF1α; Table 9, other synthetic compounds",0.0887 ± 0.0058 µM
same,Activity compared to that of SMX,HIF1α; Table 9,3.14
same,tumor size,22Rv1 cells; [4],the tumor size became smaller
same,tumor weight,22Rv1 cells; [4],the tumor weight decreased
same,"Akt, Cdk4, and Hsp70 in tumors (western blot)",22Rv1 cells; 22Rv1 xenograft tumors,"without causing changes in Akt, Cdk4, and Hsp70"
same,"SDHB, SIRT3, p-AMPK and CHOP in tumors (western blot)",22Rv1 cells; 22Rv1 xenograft tumors,"decreases in SDHB and SIRT3, activated AMPK (p-AMPK), and induced the mitochondrial unfolded protein response (CHOP)"
"CCCCCCCCCCCCCC[P+](c1ccccc1)(c1ccccc1)c1ccccc1 [TPP-14, Tetradecyltriphenylphosphonium]",SDHB and SIRT3 expression (TRAP1 inhibition),TRAP1 [3],strong effects
same,IC50,"[1]; Table 1, alkyl-TPPs",0.384 ± 0.0392 µM
same,Activity compared to that of SMX,[1]; Table 1,1.62
same,binding capacity compared to that of SMX (MitoQ),[1],superior to that of SMX
same,IC50,"HIF1α; Table 6, alkyl-TPPs",0.034 ± 0.0392 µM
same,Activity compared to that of SMX,HIF1α; Table 6,13.76
"CCCCCCCCCCCCCCCC[P+](c1ccccc1)(c1ccccc1)c1ccccc1 [TPP-16, Hexadecyltriphenylphosphonium]",SDHB and SIRT3 expression (TRAP1 inhibition),TRAP1 [3],strong effects
same,IC50,"[1]; Table 1, alkyl-TPPs",0.309 ± 0.026 µM
same,Activity compared to that of SMX,[1]; Table 1,2.01
same,binding capacity compared to that of SMX (MitoQ),[1],superior to that of SMX; also recorded: twice as strong as that of SMX
same,binding capacity compared to that of SMX (MitoQ),[1]; listed as hexadecyl-TPP,superior to that of SMX; also recorded: twice as strong as that of SMX
same,IC50,"HIF1α; Table 6, alkyl-TPPs",0.03 ± 0.026 µM
same,Activity compared to that of SMX,HIF1α; Table 6,15.59
